Here are results for 91 molecules from a melting point compilation (Tetko et al.; mined from patent text by program, amines drawn as free bases though some values may be those of a salt).

SMILES strings stand for the structures. Residues, ends and D or L forms follow the SMILES beside them. *: point of attachment. Cbz = O=C(OCc1ccccc1)* A value given as a limit tells only on which side of the number the result lay.

`Cc1c(NC(=O)c2ccc(-c3ccc(F)cc3)cc2)ccc2cc(C(c3ccccc3)N3CCCC3)cnc12` (stereo unspecified) gave a melting point of 192 to 195 °C. The same measure for `O=C1OC(=O)c2cc3cccc([N+](=O)[O-])c3c3cccc1c23`: 246 °C; for `CC(=O)OC1c2ccccc2C(=O)N1CCO[N+](=O)[O-]` (stereo unspecified): 74 to 75 °C; for `Cc1[nH]c2ccc(CCN3CCCC3)cc2c1C(=O)OCc1ccccc1`: 76 to 78 °C.

The molecule `CS(=O)(=O)CCCC1(C(=O)O)CCC1` had a melting point of 113 to 116 °C. `COCCOCCOc1ccc2sc(C(=O)Nc3ccccc3N)cc2c1` registered a melting point of 167 to 168 °C. Regarding `COc1cc(CC2COC(c3ccc(O)c(OC)c3)C2CO)ccc1O` (stereo unspecified), the melting point is 169 to 171 °C. The same measure for `O=C(C=Cc1cccc(S(=O)(=O)NCc2ccc3c(c2)OCO3)c1)NO`: 163 °C; for `CCN(CC)c1c(OC)cccc1C(=O)O`: 68 to 71 °C; for `COc1cc2c(cc1O)CCN(C(=O)c1ccc(OC)c(OC)c1)C2=O`: 199 to 200 °C.

Turning to `Cc1ccc(-c2n[nH]c3c2CCCC3)cc1`, the melting point fell in the range of 57.4 to 59.9 °C. In the case of `CN(C)S(=O)(=O)c1ccc(Br)cc1OC(F)(F)F`, the melting point was 55 to 58 °C.

For `NC(=O)c1cc(NCc2ccc(Cl)cc2)c([N+](=O)[O-])cc1[N+](=O)[O-]`, the melting point lay within 207 to 210 °C. The same measure for `N#Cc1c(Cl)ccc(F)c1Cl`: 69 to 71 °C; for `CNc1cc(F)ccc1C(=O)CS(C)(=O)=O`: 144 to 145 °C. `O=C(c1ccc(Cl)cc1)c1noc(CS(=O)c2ccccc2)n1` (stereo unspecified): the melting point was in the range of 93 to 95 °C. The same measure for `COc1ccccc1-c1cnc(-c2ccccc2)[nH]c1=O`: 245 to 247 °C; for `COC(=O)c1cccc(Nc2nc(-c3cccnc3)nc3ccccc23)c1`: 228 to 245 °C. The molecule `Cc1cccc(C)c1NCCCNCC(O)COc1ccc(O)cc1` (stereo unspecified) had a melting point of 97 to 98 °C. Under `COC(=O)C(C)NC(=O)C1CCCN1C(=O)CNC(=O)OCc1ccccc1` (stereo not drawn) (Cbz-Gly-Pro-Ala-OMe; configuration not given here) stands 103 to 106 °C; under `C[C@@H](O)CNc1c(-c2ccc(F)cc2)c(=O)c1=O`, 235 to 237 °C. Under `COC(=O)Nc1ccccc1C=Cc1ccccc1Cl` stands 135 to 137 °C. Under `CCCCCCCCCCCCCCCCCCSC(C)CC#N` (stereo unspecified) stands 38 °C; under `COc1ccccc1C(c1ccccc1)c1cccc(-c2ccccc2)c1O` (stereo unspecified), 120 °C; under `CC(C(O)CCC(C)(C)C)C1CCC2C3CC=C4CC(O)CCC4(C)C3CCC12C` (stereo unspecified), 191 to 193 °C. `CC1(C(=O)O)CCc2cc(O)ccc2O1` (stereo unspecified): the melting point was 190 to 192 °C. Under `COC(=O)c1ccccc1OCC(O)CN1CCN(c2ccccc2OC)CC1` (stereo unspecified) stands 120 to 121 °C.

Consider `COc1ccc(-c2cnc(C)[nH]c2=O)cc1OC`, for which the melting point fell in the range of 187 to 188 °C.

`O=C(OCCO)c1cc(-c2ccc(Cl)cc2)c[nH]1` showed a melting point of 128 to 130 °C.

The molecule `Cc1[nH]c(N)c(C)c1-c1ccnc(Nc2ccc(F)cc2)n1` returned a melting point of 227 to 231 °C. Under `COCCC(=O)N[C@H]1CC[C@H](CCN2CCN(c3nc(C)cc4occc34)CC2)CC1` stands 158 °C.

`O=C1CCCc2ncccc2N1` gave a melting point of 156 to 159 °C. `Nc1nc(N)c2cc(S(=O)(=O)c3ccc4ccccc4c3)ccc2n1` gave a melting point of 300 to 302 °C. Under `CCCCOc1ccc(C=CCCCC(=O)O)cc1` stands 56 to 57 °C. `Nn1ccnc1-c1ccc(Cl)cc1` had a melting point of 210 °C. Under `CC(=O)Oc1ccc2c3c(ccc2c1)C1CC=CC1(C)CC3` (stereo unspecified) stands 95 to 96 °C; under `CCc1cc(=O)c2cc(C(C)CO)ccc2o1` (stereo unspecified), 59.5 to 60.5 °C; under `Cc1ccc2c(c1)oc1c(C(=O)NN3CCCC3)nn(-c3ccc(Cl)cc3Cl)c12`, 90 to 92 °C.

For `O=P(Cc1ccccc1O)(c1ccccc1)c1ccccc1`, the melting point is 179 °C. `COC1=Cc2c(n(C)c(=O)n2C)CC1=NNC(=N)N` registered a melting point of 260 °C. Under `CCNc1c(C(=O)OCC)c(C)nc2c1nnn2CC` stands 60 to 61 °C; under `COc1ccc(C(=O)NCC[C@@H](O)C(=O)O)cc1`, 104 °C. Under `COc1ccc(C(=O)O)nc1Oc1cccc(C(F)(F)F)c1` stands 116 to 118 °C. Molecule `ClCc1cccc(CCl)n1` registered a melting point of 74.5 to 75.5 °C. Under `CCCN(CCC)S(=O)(=O)c1cccc(C(=O)Nc2cccc(Br)c2)c1` stands 105 to 107 °C; under `CCCOc1ccccc1-c1ccc(C#N)c(=S)[nH]1`, 127 to 128 °C. The molecule `COC(=O)N1CSC(=Cc2cc(C(C)(C)C)c(O)c(C(C)(C)C)c2)C1=O` came in with a melting point of 165 to 168 °C. As to `CNC(=O)C(N)Cc1ccc2ccccc2c1` (stereo unspecified), the melting point fell in the range of 127 to 128 °C.

Regarding `OCCCc1ccc(OCc2ccccc2)cc1`, the melting point was 63 to 64 °C.

The molecule `Cc1oc(-c2ccco2)nc1COc1ccc(COc2nn(-c3ccccc3)cc2/C=C/C(=O)O)cc1` yielded a melting point of 144 to 145 °C. The same measure for `CC(C)c1c(C=CC(=O)CC(O)CC(=O)O)c(-c2ccccc2)c2c3ccccc3ccn12` (stereo unspecified): 95 to 100 °C; for `CC(=O)Nc1cccc(C(=O)Nc2cccc3cc(Br)cnc23)c1`: 198 to 202 °C. The same measure for `CCCCCCCCCCCCCCOc1ccc(COC(=O)N(Cc2ccccn2)C(C)=O)cc1`: 52 to 53 °C. Molecule `CC1CN(C(=O)OC(C)(C)C)CCC1(O)c1cc(C(F)(F)F)cc2ccoc12` (stereo unspecified) displayed a melting point of 133 to 136 °C. Under `CCOC(=O)Nc1cc(N(C)C)nc2nc(=O)on12` stands 230 to 240 °C. The same measure for `CCCCCCCCCCCCCCCC(=O)Nc1nc(=O)n(C2OC(C)C(O)C2O)cc1F` (stereo unspecified): 93 to 95 °C; for `CC1(C)CC(=O)NC2CCCCC2N1CCO` (stereo unspecified): 154 to 156 °C; for `COc1cc(C(=O)NS(=O)(=O)c2ccccc2C)ccc1Cn1cc(/C=C/C(=O)N2CCCC2)c2ccc(/C=C/C(=O)N3CCCC3)cc21`: 297 to 299 °C. Under `CC(C)(C)c1ccc(CSc2nc3cnccc3[nH]2)cc1` stands 207 to 208 °C.

Molecule `Cc1ccc(C(=O)c2ccc(CC(=O)O)n2C)c(Cl)c1` came in with a melting point of 176 to 178 °C.

In turn, `CCc1cc2[nH]c(=O)c(-c3ccccc3)cc2c(CC)n1` gave a melting point of more than 260 °C. The same measure for `COc1ccc(C2=NN(C3Cc4ccccc4C3)C(=O)[C@H]3CC=CC[C@@H]23)cc1OC` (relative stereo): 163 to 164 °C. The same measure for `CCCCCCCCc1ccc(CCC(COC(C)=O)(COC(C)=O)NC(C)=O)cc1`: 112 °C; for `Cc1noc(C)c1-c1ccc(OC2SCC(O)C(O)C2O)c(F)c1` (stereo unspecified): 140 °C. The same measure for `O=C(NCCNC1CCC(c2ccc3[nH]c(=O)oc3c2)CC1)c1ccccc1` (stereo unspecified): 167 to 175 °C. Take `COc1ccc(C(=O)Nc2ccccc2)c2c1OCC2CC(=O)O` (stereo unspecified): the melting point lay within 248 to 251 °C. For the molecule `CC(C)c1nn(-c2ccc(C#N)cn2)cc1CCCO`, the melting point lay in the range of 105 to 106 °C.

In the case of `COc1cc2ncc(C#N)c(Nc3cc(Cl)c(O)c(Cl)c3)c2cc1OC`, the melting point was more than 250 °C.

With `CN1CCc2c(c3ccc(-n4ccc(-c5ccc(C(F)(F)F)nc5)cc4=O)cc3n2C)C1`, the melting point was in the range of 295 to 300 °C.

For `CCOC(=O)CNc1ncccc1NC(=O)c1ccc(Br)cc1`, the melting point lay within 153 to 154 °C. The same measure for `CCOC(=O)C1=C(C)NC(C)=C(C(=O)OCC)C1c1ccc(OCCCN(C)C)c(OC)c1`: 62 °C. The same measure for `CN(C)c1nc(C(F)(F)F)cc(=O)n1-c1cc(F)c(C#N)cc1F`: 147 °C. Under `Cc1cnc(COc2nn3c(-c4ccccc4)nnc3cc2-c2ccccc2)s1` stands 182 °C. `CN(C(=O)O)c1cccc(-c2ccnc3c(C(=O)c4cccs4)cnn23)c1` came in with a melting point of 215 to 217 °C. As to `CCCCc1oc2ccccc2c1-c1ncc(-c2ccc3cc(OC(Cc4ccccc4)C(=O)OC)ccc3c2)o1` (stereo unspecified), the melting point lay in the range of 122 to 124 °C.

The molecule `CN(C)c1ccn2nc(S(=O)(=O)Nc3c(Cl)cccc3Cl)nc2n1` gave a melting point of more than 310 °C. Under `COc1cc(Br)c(OC(=O)c2ccc(OC)c(F)c2)c(NC(=O)c2ccc(OC)c(F)c2)c1` stands 184 to 186 °C; under `O=C1CC=C(c2ccc(Cl)cc2)CC1`, 59 to 62 °C; under `COc1ccc(-c2sc(-c3ccc(OC)s3)c3c2OCCO3)s1`, 101 °C. Under `CCOC(=O)C(O[Si](C)(C)C)C(O[Si](C)(C)C)c1cc2c(cc1[N+](=O)[O-])OCO2` (stereo unspecified) stands 73.6 to 79.1 °C. The same measure for `C=CCOc1ccc(C[C@@H](NC(C)=O)C(=O)OC)cc1`: 90 °C; for `CS(=O)(=O)N1CC(=O)NC(=O)N1Cc1ccc(Cl)cc1`: 145 °C; for `O=C(Nc1ccc(Oc2ccnc(NC3CCCC3)n2)c2ccccc12)c1cc(F)cc(N2CCOCC2)c1`: 119 to 120 °C. `N#Cc1ccc(Nc2nc(Cl)nc(Cc3c(Cl)cccc3Cl)n2)cc1` came in with a melting point of 243 to 244 °C. Molecule `NC(=O)N(O)CCNC(=O)c1cc2c(Cl)cccc2s1` yielded a melting point of 181 to 184 °C. Under `N=C(Nc1ccc([N+](=O)[O-])cc1)c1ccccc1` stands 240 to 241 °C; under `CC(=O)c1cc(OCC2CO2)ccc1OCc1ccccc1` (stereo unspecified), 45 to 48 °C; under `Nc1nc2ccccc2n(-c2ccc(Cl)cc2)c1=O`, 254 to 255 °C. For the molecule `C=CCC(=O)NCC(CO)c1cccc2ccc(OC)cc12` (stereo unspecified), the melting point lay in the range of 86 to 88 °C. The same measure for `CC12CCC3C(CCC4=CC(=O)C=C(CO)C43C)C1CCC2=O` (stereo unspecified): 201 to 202 °C. The same measure for `Cc1ccc(-n2c(-c3cc(-c4ccc(Cl)cc4)c(N4CCOCC4)s3)nc3ccccc3c2=O)cc1`: 224 to 226 °C.
